pIC50: −log10 of the molar value. Structures can show the parent of a compound that is named as a salt.
Experiments:
Type in all cases: biochemical
[1] = tested on: dopamine (DA) reuptake in synaptosomes; assay: Inhibition of DA reuptake in synaptosomes; details: 3H-DA, read-out: DA-uptake IC50
Procedure: (§1) Compounds were tested for their ability to inhibit the reuptake of the monoamine neurotransmitters dopamine (DA) noradrenaline (NA) and serotonine (5-HT) in synaptosomes as described in WO 97/16451 (NeuroSearch A/S).
(§2) The test values are given as IC50 (the concentration (μM) of the test substance which inhibits the specific binding of ^3H-DA, ^3H-NA, or ^3H-5-HT by 50%).

[2] = tested on: noradrenaline (NA) reuptake in synaptosomes; assay: Inhibition of NA reuptake in synaptosomes; details: 3H-NA, read-out: NA-uptake IC50
Procedure: as §1, §2

[3] = tested on: serotonine (5-HT) reuptake in synaptosomes; assay: Inhibition of 5-HT reuptake in synaptosomes; details: 3H-5-HT, read-out: 5-HT-uptake IC50
Procedure: as §1, §2

COc1cc2ccc(O[C@@H]3C[C@H]4CC[C@@H](C3)N4)cc2oc1=O [Compound 1.1, Exo-7-[(-8-azabicyclo[3.2.1]octan-3-yl)oxy]-3-methoxy-chromen-2-one hydrochloride]
pIC50 [1]: 7.15 | pIC50 [2]: 8.42 | pIC50 [3]: 8.54

From patent US9133184B2, “Chromen-2-one derivatives and their use as monoamine neurotransmitter re-uptake inhibitors” (ANIONA APS, priority 2010, dated 2015)
